Assay results from ChEMBL document CHEMBL4732219, “Synthesis and evaluation of cyclopentane-based muraymycin analogs targeting MraY” (Eur J Med Chem, 2021).
≈ marks a conversion by molar mass, not a printed value.

Tests used:
[1] = target: T1, Phospho-N-acetylmuramoyl-pentapeptide-transferase (Aquifex aeolicus (strain VF5), UniProt O66465); assay: Inhibition of Aquifex aeolicus MraY using UDP-MurNAc-pentapeptide as substrate measured after 5 mins by UMP-Glo glycosyltransferase assay
T1 sequence (O66465 whole entry): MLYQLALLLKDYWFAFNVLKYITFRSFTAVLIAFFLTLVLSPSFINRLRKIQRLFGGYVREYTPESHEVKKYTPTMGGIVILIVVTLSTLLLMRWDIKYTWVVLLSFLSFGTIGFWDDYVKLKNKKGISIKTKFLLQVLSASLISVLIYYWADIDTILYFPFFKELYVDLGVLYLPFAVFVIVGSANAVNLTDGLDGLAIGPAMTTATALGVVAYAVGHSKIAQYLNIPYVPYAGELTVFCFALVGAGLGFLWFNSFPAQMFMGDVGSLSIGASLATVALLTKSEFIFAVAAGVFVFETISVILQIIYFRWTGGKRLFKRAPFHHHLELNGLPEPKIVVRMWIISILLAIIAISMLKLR

[2] = test system: Staphylococcus aureus; assay: Antibacterial activity against Staphylococcus aureus SA113 assessed as growth inhibition; assay type: functional

Structure (SMILES)	IC50 [1] [µM]	MIC [2] [mg/L]
CCCCCCCCCCCCCCCCC(=O)N[C@@H](CCCNC(=N)N)C(=O)NCCCN[C@H](C(=O)OC)[C@H](O[C@@H]1O[C@H](CN)[C@@H](O)[C@H]1O)[C@@H]1CC[C@H](n2ccc(=O)[nH]c2=O)C1	75	54 (≈ 60.4 µM)
CC(C)(C)OC(=O)[C@@H](NC(=O)OCc1ccccc1)[C@H](O[C@@H]1O[C@H](CN)[C@@H](O)[C@H]1O)[C@@H]1CC[C@H](n2ccc(=O)[nH]c2=O)C1	340	–
NC[C@H]1O[C@@H](O[C@H]([C@@H]2CC[C@H](n3ccc(=O)[nH]c3=O)C2)[C@H](NC(=O)OCc2ccccc2)C(=O)O)[C@H](O)[C@@H]1O	500	–
